Measured values published in ChEMBL document CHEMBL5046319, “Development of Low-Molecular-Weight Compounds Targeting the Cancer-Associated KLF5 Transcription Factor” (ACS Med Chem Lett, 2022).
Activity calls are given as the source filed them. No cut-off for these calls is given here.

What was measured:
HCT-116 [1] = test: Antiproliferative activity against human HCT-116 cells assessed as cell growth inhibition measured after 72 hrs by Cell Counting Kit-8 assay; assay type: functional, cell-based; conditions: HCT-116, 72 h
SW480 [2] = test: Inhibition of Wnt signalling in human SW480 cells assessed as reduction in TCF4 expression at 10 uM measured after 24 hrs by western blot analysis; assay type: cell-based
CCD-841CoN [3] = test: Inhibition of Wnt signalling in human CCD841 cells assessed as reduction in survivin expression at 10 uM measured after 24 hrs by western blot analysis; assay type: cell-based
CCD-841CoN [4] = test: Cytotoxicity against human CCD-841 cells assessed as cell growth inhibition measured after 72 hrs by Cell Counting Kit-8 assay; assay type: toxicity, cell-based
SW480 [5] = test: Inhibition of Wnt signalling in human SW480 cells assessed as reduction in KLF5 expression at 10 uM measured after 24 hrs by western blot analysis; assay type: cell-based
SW480 [6] = test: Inhibition of Wnt signalling in human SW480 cells assessed as reduction in KLF5 mRNA expression at 10 uM measured after 24 hrs by RT-PCR analysis; assay type: cell-based
SW480 [7] = test: Inhibition of Wnt signalling in human SW480 cells assessed as reduction in survivin expression at 10 uM measured after 24 hrs by western blot analysis; assay type: cell-based
SW480 [8] = test: Antiproliferative activity against human SW480 cells assessed as cell growth inhibition measured after 72 hrs by Cell Counting Kit-8 assay; assay type: functional, cell-based; conditions: SW480, 72 h
CCD-841CoN [9] = test: Inhibition of Wnt signalling in human CCD841 cells assessed as reduction in KLF5 expression at 10 uM measured after 24 hrs by western blot analysis; assay type: cell-based
SW480 [10] = test: Inhibition of Wnt signalling in human SW480 cells assessed as reduction in phosphorylation of beta-catenin at ser552 residues at 10 uM measured after 24 hrs by western blot analysis; assay type: cell-based
CCD-841CoN [11] = test: Inhibition of Wnt signalling in human CCD841 cells assessed as reduction in TCF4 expression at 10 uM measured after 24 hrs by western blot analysis; assay type: cell-based
SW480 [12] = test: Antiproliferative activity against human SW480 cells assessed as inhibition of cell proliferation at 100 uM incubated for 72 hrs by CCK-8 assay; assay type: functional, cell-based
CCD-841CoN [13] = test: Cytotoxicity against human CCD841 cells assessed as inhibition of cell proliferation at 100 uM incubated for 72 hrs by CCK-8 assay; assay type: toxicity, cell-based
HCT-116 [14] = test: Antiproliferative activity against human HCT-116 cells assessed as inhibition of cell proliferation at 100 uM incubated for 72 hrs by CCK-8 assay; assay type: functional, cell-based
[15] = Toxicity in nude mouse transplanted subcutaneously with human HT-29 cells assessed as abnormality in villi formation at 2 mg, ip administered twice daily for 8 days by H and E staining based assay; assay type: organism-based; conditions: in vivo, 192 h, time 8 day
HT-29 = test: Antitumour activity against human HT-29 cells subcutaneously transplanted in nude mouse assessed as reduction in tumor volume at 2 mg, ip administered twice per day for 8 days; assay type: functional, organism-based; conditions: time 8.0 day
SW480 [16] = test: Inhibition of Wnt signalling in human SW480 cells assessed as reduction in phosphorylation of beta-catenin at ser675 residue at 10 uM measured after 24 hrs by western blot analysis; assay type: cell-based
CCD-841CoN [17] = test: Inhibition of Wnt signalling in human CCD841 cells assessed as reduction in phosphorylation of beta-catenin at ser675 residue at 10 uM measured after 24 hrs by western blot analysis; assay type: cell-based
CCD-841CoN [18] = test: Inhibition of Wnt signalling in human CCD841 cells assessed as reduction in cyclin D1 expression at 10 uM measured after 24 hrs by western blot analysis; assay type: cell-based
SW480 [19] = test: Inhibition of Wnt2 signalling in human SW480 cells assessed as reduction in cyclin D1 expression at 10 uM measured after 24 hrs by western blot analysis; assay type: cell-based
[20] = Toxicity in nude mouse transplanted subcutaneously with human HT-29 cells assessed as abnormality in epithelial cell integrity at 2 mg, ip administered twice daily for 8 days by H and E staining based assay; assay type: organism-based; conditions: in vivo, 192 h, time 8 day
SW480 [21] = test: Inhibition of USP3-KLF5 protein complex formation in human SW480 cells assessed as reduction in beta-catenin expression at 10 uM measured after 24 hrs by western blot analysis; assay type: cell-based
HEK293T = test: Inhibition of USP3-KLF5 protein complex formation in HEK293T cells overexpressing Myc tag-USP3 and FLAG/HA-KLF5 proteins assessed as reduction in KLF5 expression at 20 uM measured after 4 hrs by western blot analysis; assay type: cell-based; conditions: Homo sapiens

In the case of `CC(C)COC(=O)N1O[C@H](C(C)C)C(=O)N2[C@@H](CC(C)C)CN(Cc3ccccc3)C[C@H]12`, the IC50 (HCT-116 [1]) is reported as 5.1 µM, the Activity (SW480 [2]) is reported as “Active” and the Activity (CCD-841CoN [3]) is reported as “inactive”. The Activity (CCD-841CoN [4]) was “Non-Toxic”, the Activity (SW480 [5]) was “Active” and the Activity (SW480 [6]) was “inactive”. For the same molecule, the Activity (SW480 [7]) was “Active”, the IC50 (SW480 [8]) was 5.1 µM and the Activity (CCD-841CoN [9]) was “inactive”. The Activity (SW480 [10]) was “Active” and the Activity (CCD-841CoN [11]) was “inactive”.

In the case of `CCCC[C@H]1CN(Cc2ccccc2)C[C@@H]2N(C(=O)OCC(C)C)O[C@H](C(C)C)C(=O)N12`, the IC50 (HCT-116 [1]) is reported as 5.1 µM, the Activity (SW480 [2]) is reported as “Active” and the Activity (CCD-841CoN [3]) is reported as “inactive”. The Activity (CCD-841CoN [4]) was “Non-Toxic”, the Activity (SW480 [5]) was “Active” and the Activity (SW480 [6]) was “inactive”. For the same molecule, the Activity (SW480 [7]) was “Active”, the IC50 (SW480 [8]) was 5.1 µM and the Activity (CCD-841CoN [9]) was “inactive”. The Activity (SW480 [10]) was “Active” and the Activity (CCD-841CoN [11]) was “inactive”.

For `CC(C)[C@@H](ON1C(=O)c2ccccc2C1=O)C(=O)OCc1ccccc1`, the Activity (SW480 [12]) was “Active”, the Activity (CCD-841CoN [13]) was “Toxic” and the Activity (HCT-116 [14]) was “Active”.

With `O=C1c2ccccc2C(=O)N1O` the Activity (SW480 [12]) was “Active”, the Activity (CCD-841CoN [13]) was “Toxic” and the Activity (HCT-116 [14]) was “Active”.

In the case of `CC[C@H](C)[C@H](NC(=O)OCC1c2ccccc2-c2ccccc21)C(=O)O`, the Activity (SW480 [12]) is reported as “Active”, the Activity (CCD-841CoN [13]) is reported as “Toxic” and the Activity (HCT-116 [14]) is reported as “Active”.

With `O=Cc1ccccc1` [BENZALDEHYDE] the Activity (SW480 [12]) was “Active”, the Activity (CCD-841CoN [13]) was “Toxic” and the Activity (HCT-116 [14]) was “Active”.

In the case of `CCOC(CNCc1ccccc1)OCC`, the Activity (SW480 [12]) is reported as “Active”, the Activity (CCD-841CoN [13]) is reported as “Toxic” and the Activity (HCT-116 [14]) is reported as “Active”.

In the case of `CC(C)[C@H](O)C(=O)O`, the Activity (SW480 [12]) is reported as “Active”, the Activity (CCD-841CoN [13]) is reported as “Toxic” and the Activity (HCT-116 [14]) is reported as “Active”.

In the case of `CCOC(CN(Cc1ccccc1)C(=O)[C@@H](N)[C@@H](C)CC)OCC`, the Activity (SW480 [12]) is reported as “Active”, the Activity (CCD-841CoN [13]) is reported as “Toxic” and the Activity (HCT-116 [14]) is reported as “Active”.

In the case of `CC(C)[C@H](O)C(=O)OCc1ccccc1`, the Activity (SW480 [12]) is reported as “Active”, the Activity (CCD-841CoN [13]) is reported as “Toxic” and the Activity (HCT-116 [14]) is reported as “Active”.

With `CC(C)[C@@H](ON)C(=O)OCc1ccccc1` the Activity (SW480 [12]) was “Active”, the Activity (CCD-841CoN [13]) was “Toxic” and the Activity (HCT-116 [14]) was “Active”.

In the case of `CCOC(CN)OCC`, the Activity (SW480 [12]) is reported as “Active”, the Activity (CCD-841CoN [13]) is reported as “Toxic” and the Activity (HCT-116 [14]) is reported as “Active”.

For `CC[C@H](C)[C@H]1CN(Cc2ccccc2)C[C@@H]2N(C(=O)OCC(C)C)O[C@H](C(C)C)C(=O)N12`, the IC50 (HCT-116 [1]) was 2.5 µM, the Activity (SW480 [2]) was “Active” and the Activity [15] was “Non-Toxic”. For the same molecule, the Activity (CCD-841CoN [4]) was “Non-Toxic”, the Activity (SW480 [5]) was “Active” and the Activity (HT-29) was “Active”. The Activity (SW480 [16]) was “Active”, the Activity (SW480 [7]) was “Active” and the IC50 (SW480 [8]) was 2.5 µM. The Activity (CCD-841CoN [17]) was “inactive”, the Activity (CCD-841CoN [18]) was “inactive” and the Activity (SW480 [19]) was “Active”. For the same molecule, the Activity (SW480 [10]) was “Active”, the Activity [20] was “Non-Toxic” and the Activity (SW480 [21]) was “Active”. The Activity (HEK293T) was “Active”.

For `O=C1[C@H](Cc2ccc(O)cc2)N2C(=O)CCN(C(=O)NCc3ccccc3)[C@H]2CN1Cc1cccc2ccccc12`, the Activity (SW480 [12]) was “Active”, the Activity (CCD-841CoN [13]) was “Toxic” and the Activity (HCT-116 [14]) was “Active”.

With `CCOC(CN(Cc1ccccc1)C(=O)[C@@H](NC(=O)OCC1c2ccccc2-c2ccccc21)[C@@H](C)CC)OCC` the Activity (SW480 [12]) was “Active”, the Activity (CCD-841CoN [13]) was “Toxic” and the Activity (HCT-116 [14]) was “Active”.
